# Values of other authors, collected in patent US11213608B2, “Compositions including gelatin nanoparticles and methods of use thereof” (Wake Forest University Health Sciences, priority 2018, dated 2022).
# Test system: HepG2 cells
smiles,measurement,value
"Cc1c(C)c2c(c(C)c1O)CCC(C)(COc1ccc(CC3SC(=O)NC3=O)cc1)O2 (stereo not shown) [TRO, troglitazone]",concentration above which toxic effects are commonly reported,above 100 μM
